# Experiments:
# [1] = target: five 5′Cy5-labeled G4s from cancer-relevant genes (BCL2, KRAS, mTOR, NRAS, telomeric DNA); assay: FIA selectivity profiling with five other 5′Cy5-labeled G4s; type: binding; details: five 5′Cy5-labeled G4s other than MYCN
# [2] = test system: MYCN G4 DNA (hairpin minor groove); assay: Fluorescence displacement assay with Hoechst 33258; type: binding, human
# Method: Fluorescence displacement assay. Fluorescence displacement assays were carried out by using two classical minor groove binders (Hoechst 33258 and netropsin). Hoechst 33258, as a fluorophore, was prepared at 5 μM concentration in the buffer (10 mM Tris, pH7.0, 100 mM KCl), and then titrated with different concentrations of unlabeled MYCN G4 oligonucleotides. For displacement, either compound MY-1 or netropsin was added into the solution resulting in a final concentration of 5 μM or 50 μM. Fluorescence signals were obtained with an excitation wavelength of 352 nm and an emission wavelength of 500 nm.
# BCL2 HP-G4 = assay: FIA binding test with BCL2 HP-G4 (parallel structure)
# Method: In this study, FIA was used for validating the bindings between certain bivalent and MYCN G4 oligos. To measure the binding affinity, a solution of each compound was prepared in triplicate in a 96 well-plate (Costar, black side clear bottom), resulting in a final concentration of 100 nM (5% final DMSO in the working solution). Unlabeled MYCN G4 DNA was folded based on the above-mentioned annealing method, then added into the well plate resulting in different concentrations by a seral dilution. The plate was incubated at room temperature for 30 min, followed by centrifuging at 500 rpm for 2 minutes. The fluorescence intensity was then quantitatively recorded by a Synergy Mx microplate reader (BioTek) at Ex 340 nm/Em 500 nm. The fluorescence intensities were then normalized, and the binding affinity was calculated by fitting the curve using one-site total model in GraphPad Prism 8.3.1 software.
# In addition to the DMS-footprinting study, the bivalent binding mode of compound B33 toward MYCN hairpin-G4 was also investigated by comparing HP-G4s with different folding types. Four reported HP-G4s with parallel structure (BCL2), (3+1) hybrid structure (HIV and PIM1-form1), and (2+2) chair-type structure (PIM1-form2) were examined by FIA binding test using compound B33 (FIGS. 41A, 41B, 42A, 42B, 43A, 43B, 44A, and 44B). […]
binding affinities (KD) to other G4s [1],displacement of Hoechst 33258 at 5 μM ([2]; 5 μM competitor),displacement of Hoechst 33258 at 50 μM ([2]; 50 μM competitor),Compound,fold weaker than MYCN HP-G4 (BCL2 HP-G4; BCL2 HP-G4 vs MYCN HP-G4) [times],Kd (BCL2 HP-G4; FIA) [nM]
no significant quenching behavior,no measurable change,partial fluorescence decrease,"COc1ccc(-c2noc(-c3ccc(NCCCN4CCCC4)nn3)n2)cc1 [MY-1, 6-(3-(4-methoxyphenyl)-1,2,4-oxadiazol-5-yl)-N-(3-(pyrrolidin-1-yl)propyl)pyridazin-3-amine]",–,–
–,–,–,"COc1ccc(-c2noc(-c3ccc(NCCCNc4c5ccc(Cl)cc5nc5ccc(OC)cc45)nn3)n2)cc1 [B33, N^1-(6-chloro-2-methoxyacridin-9-yl)-N^3-(6-(3-(4-methoxyphenyl)-1,2,4-oxadiazol-5-yl)pyridazin-3-yl)propane-1,3-diamine]",~4,258 ± 39

# — patent publication US20240287054A1, “COMPOUNDS THAT BIND NON-CANONICAL G-QUADRUPLEX STRUCTURES AND METHODS OF MAKING AND USING THE SAME” (The U.S.A., as Represented by the Secretary, Department of …, priority 2021, published 2024)
